# In the CheMixHub ionic liquid set:
# ± gives the uncertainty stated by the source.
# Test: xn = mol fraction of the nth substance listed
# Conditions: 298 K, 100 kPa, frequency 0.001 MHz
smiles,measurement,setting,value
CCCCCCCCCCCCOS(=O)(=O)[O-].[Na+] + CC(C)O + O,electrical conductivity,"x2 = 0.04868, x3 = 0.9512",0.0308 ± 0.00058 S/m
same,electrical conductivity,"x2 = 0.1358, x3 = 0.8641",0.0155 ± 0.00052 S/m
